Assay results from patent US20250230472A1, “EXTRACTION OF ALKANOIC ACIDS” (priority 2018, published 2025).

Experiment: Distribution coefficient of carboxylic acids, water / 20% TAPO in Fragoltherm, two-phase co-culture
Assay type: physicochemical
Settings: water and 20% TAPO in Fragoltherm, pH 6.6, after 67 h cultivation at 37° C.
Experimental: The bacterium Clostridium kluyveri was cultivated in a co culture with Clostridium autoethanogenum for the biotransformation of ethanol and acetate to medium chain fatty acids. For the inSitu extraction of the produced acids the aqueous phase was overlayed with a mixture of Fragoltherm Q-32-N with trialkylphosphineoxide (TAPO). All cultivation steps were carried out under anaerobic conditions, the preculture in a stainless steel bubble column loop reactor and the main culture in a pressure-resistant glass bottle that can be closed airtight with a butyl rubber stopper.
The aqueous phase was then overlayed with 20 ml anaerobisized extracting agent (20% trialkylphosphineoxid (TAPO) in Fragoltherm Q-32-N). The bottle with the two-layer phases was then cultivated at 37° C., 150 rpm and with a gas atmosphere of 10% H2 and 90% N2 in an open water bath shaker for 67 h. The gas atmosphere in the bottle was flushed once a day for 10 min with pure N2.
During cultivation several 5 mL samples from both, the aqueous and the organic phase, were taken to determinate OD600 nm, pH and product formation. The determination of the product concentrations in the aqueous phase was performed by semiquantitative 1H-NMR spectroscopy and high performance liquid chromatography (HPLC) and in the organic phase by semiquantitative 1H-NMR spectroscopy and gas chromatography (GC). […]

SMILES	distribution coefficient K(D)
CCCCCC(=O)O [hexanoic acid]	4.33
CCCCCCCC(=O)O [octanoic acid]	108
